Experiments:
Conditions in all cases: read-out: pA2 (converted)
[1] = target: T1, Beta-1 adrenergic receptor (Cavia porcellus, UniProt B0FL73); assay: Competitive antagonist activity at beta-1 adrenergic receptor in guinea pig assessed as inhibition of isoproterenol-induced atrial beat rate; parameters: species or system Cardiac atrium
[2] = target: T1, Beta-1 adrenergic receptor; assay: Competitive antagonist activity at beta-1 adrenergic receptor in guinea pig assessed as inhibition of isoproterenol-induced atrial contractile force; parameters: species or system Cardiac atrium
[3] = target: Beta-2 adrenergic receptor (Cavia porcellus, UniProt Q8K4Z4); assay: Competitive antagonist activity at beta-2 adrenergic receptor in guinea pig assessed as inhibition of isoproterenol-induced tracheal relaxation
Beta-2 adrenergic receptor, sequence (Q8K4Z4 whole entry): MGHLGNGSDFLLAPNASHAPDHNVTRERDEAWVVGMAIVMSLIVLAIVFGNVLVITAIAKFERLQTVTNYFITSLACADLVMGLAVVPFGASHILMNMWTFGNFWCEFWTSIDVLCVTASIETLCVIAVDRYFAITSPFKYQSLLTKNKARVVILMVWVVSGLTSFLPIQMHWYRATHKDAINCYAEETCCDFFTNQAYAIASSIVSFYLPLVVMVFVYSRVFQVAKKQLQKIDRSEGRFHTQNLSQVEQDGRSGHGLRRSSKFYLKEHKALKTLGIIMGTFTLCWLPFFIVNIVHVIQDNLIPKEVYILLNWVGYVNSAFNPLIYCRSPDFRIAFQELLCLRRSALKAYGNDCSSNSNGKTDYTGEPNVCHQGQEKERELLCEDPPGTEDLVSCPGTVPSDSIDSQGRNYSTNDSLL

T1 sequence (B0FL73 whole entry): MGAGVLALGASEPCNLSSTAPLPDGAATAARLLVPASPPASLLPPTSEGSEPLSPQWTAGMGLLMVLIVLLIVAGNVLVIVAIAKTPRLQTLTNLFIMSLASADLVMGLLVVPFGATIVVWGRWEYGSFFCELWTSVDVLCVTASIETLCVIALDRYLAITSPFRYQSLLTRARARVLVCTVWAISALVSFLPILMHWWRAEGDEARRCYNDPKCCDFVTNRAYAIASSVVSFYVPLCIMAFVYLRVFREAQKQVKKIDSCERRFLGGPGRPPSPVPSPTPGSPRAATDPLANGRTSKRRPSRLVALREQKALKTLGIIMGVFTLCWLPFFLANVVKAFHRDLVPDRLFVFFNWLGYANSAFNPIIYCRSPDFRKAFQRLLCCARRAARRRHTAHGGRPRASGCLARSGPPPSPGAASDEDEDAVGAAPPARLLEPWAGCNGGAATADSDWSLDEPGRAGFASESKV

| Kb [1] | Kb [2] | Kb [3] | Structure (SMILES) |
| --- | --- | --- | --- |
| 1000 nM | 851 nM | 380 nM | CC(C)NCC(O)COc1ccc2[nH]cnc2c1 (stereo unspecified) |
| 39.8 nM | 30.9 nM | 2.29 nM | CC(C)NCC(O)COc1cccc2[nH]cnc12 (stereo unspecified) |
